Test results: US12673961B2 (Agios Pharmaceuticals, Inc., priority 2022, dated 2026)

Each compound was assayed against T1, human PAH with the R408W mutation (Homo sapiens, UniProt P00439, R408W) (assay: Cell Based Phenylalanine Flux Assay). Details: A375 cells expressing human R408W PAH; 24 hrs with compound, then sepiapterin and 13C9,15N-Phenylalanine for 4 hours; 13C-Tyrosine by LC-MS; average where tested multiple times; read-out: AC50.
T1 construct: expressed in transfected cells
T1 sequence (P00439 1-452 R408W): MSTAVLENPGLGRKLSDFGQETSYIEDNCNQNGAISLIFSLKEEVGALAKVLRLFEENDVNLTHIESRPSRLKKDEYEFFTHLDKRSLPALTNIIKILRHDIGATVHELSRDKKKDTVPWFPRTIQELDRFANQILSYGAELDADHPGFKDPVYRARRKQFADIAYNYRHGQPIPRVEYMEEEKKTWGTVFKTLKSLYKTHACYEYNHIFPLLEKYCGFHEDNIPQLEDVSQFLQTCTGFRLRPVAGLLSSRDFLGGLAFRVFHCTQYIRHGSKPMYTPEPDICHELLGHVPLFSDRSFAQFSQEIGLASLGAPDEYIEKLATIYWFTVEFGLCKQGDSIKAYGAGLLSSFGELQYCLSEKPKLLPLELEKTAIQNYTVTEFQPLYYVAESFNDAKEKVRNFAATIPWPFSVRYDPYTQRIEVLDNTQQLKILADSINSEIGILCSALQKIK
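Further: Ten-point dose curve from 2-fold serial dilutions, run in duplicate at 0.5% DMSO final, tracer step used 20 µM sepiapterin and 800 µM labeled phenylalanine.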

Which AC50 does the source give for Cn1ccc(-c2nnc(C(=O)N3CCc4[nH]cnc4[C@@H]3c3cc4c(Br)cccn4n3)o2)n1 [Example 1888, (R)-(4-(4-bromopyrazolo [1,5-a]pyridin-2-yl)-1,4,6,7-tetrahydro-5H-imidazo[4,5-c]pyridin-5-yl)(5-(1-methyl-1H-pyrazol-3-yl)-1,3,4-oxadiazol-2-yl)methanone] here?
Its AC50 is over 5000 nM.

Which AC50 does the source give for CCc1cccn2nc([C@@H]3c4nc[nH]c4CCN3C(=O)c3nnc(-c4ccccn4)o3)cc12 [Example 1895, (S)-(4-(4-ethylpyrazolo[1,5-a]pyridin-2-yl)-1,4,6,7-tetrahydro-5H-imidazo[4,5-c]pyridin-5-yl)(5-(pyridin-2-yl)-1,3,4-oxadiazol-2-yl) methanone] here?
Its AC50 is under 500 nM.

How did the AC50 turn out when O=C(c1nnc(-c2ccccn2)o1)N1CCc2[nH]cnc2[C@H]1c1cc2c(C3CC3)cccn2n1 [Example 1897, (S)-(4-(4-cyclopropylpyrazolo [1,5-a]pyridin-2-yl)-1,4,6,7-tetrahydro-5H-imidazo [4,5-c]pyridin-5-yl)(5-(pyridin-2-yl)-1,3,4-oxadiazol-2-yl)methanone] was run?
The AC50 was 500 to 1000 nM.

Which AC50 does the source give for Cn1ccc(-c2nnc(C(=O)N3CCc4[nH]cnc4[C@@H]3c3cc4c(C5CC5)cccn4n3)o2)n1 [Example 1901] here?
The AC50 was over 5000 nM.

Which AC50 does the source give for CC(C)c1cccn2nc([C@@H]3c4nc[nH]c4CCN3C(=O)c3nnc(-c4ncccc4F)o3)cc12 [Example 1906, (S)-(5-(3-fluoropyridin-2-yl)-1,3,4-oxadiazol-2-yl)(4-(4-isopropylpyrazolo[1,5-a]pyridin-2-yl)-1,4,6,7-tetrahydro-5H-imidazo[4,5-c]pyridin-5-yl)methanone] here?
Its AC50 is under 500 nM.

With O=C(c1nnc(C2CC2)o1)N1CCc2[nH]cnc2[C@@H]1c1cc2c(Br)cccn2n1 [Example 1909, (R)-(4-(4-bromopyrazolo [1,5-a]pyridin-2-yl)-1,4,6,7-tetrahydro-5H-imidazo [4,5-c]pyridin-5-yl)(5-cyclopropyl-1,3,4-oxadiazol-2-yl)methanone] as the compound, how does the AC50 read?
The AC50 was 1000 to 5000 nM.

O=C(c1nnc(-c2ccccn2)o1)N1CCc2[nH]cnc2[C@@H]1c1cc2c(Br)cccn2n1 [Example 1910, (R)-(4-(4-bromopyrazolo [1,5-a]pyridin-2-yl)-1,4,6,7-tetrahydro-5H-imidazo[4,5-c]pyridin-5-yl)(5-(pyridin-2-yl)-1,3,4-oxadiazol-2-yl)methanone] was tested. Which AC50 did it give?
The AC50 was over 5000 nM.

Which AC50 does the source give for Fc1ccc(-c2nnc(N3CCc4[nH]cnc4[C@@H]3c3cc4c(C(F)F)cccn4n3)o2)cc1 [Example 1912, (R)-2-(4-(4-(difluoromethyl)pyrazolo[1,5-a]pyridin-2-yl)-1,4,6,7-tetrahydro-5H-imidazo[4,5-c]pyridin-5-yl)-5-(4-fluorophenyl)-1,3,4-oxadiazole] here?
Its AC50 is over 5000 nM.

How did the AC50 turn out when Fc1ccc(-c2nnc(N3CCc4[nH]cnc4[C@H]3c3cc4c(C(F)F)cccn4n3)o2)cc1 [Example 1913, (S)-2-(4-(4-(difluoromethyl)pyrazolo[1,5-a]pyridin-2-yl)-1,4,6,7-tetrahydro-5H-imidazo [4,5-c]pyridin-5-yl)-5-(4-fluorophenyl)-1,3,4-oxadiazole] was run?
The AC50 was under 500 nM.

For Cc1cccn2nc([C@@H]3c4nc[nH]c4CCN3C(=O)c3cnc(C(C)(C)C)o3)cc12 [Example 1920, (S)-(2-(tert-butyl)oxazol-5-yl)(4-(4-methylpyrazolo[1,5-a]pyridin-2-yl)-1,4,6,7-tetrahydro-5H-imidazo[4,5-c]pyridin-5-yl)methanone], which AC50 is on record?
Its AC50 is under 500 nM.

CCc1cccn2nc([C@H]3c4nc[nH]c4CCN3C(=O)c3nnc(C(C)(C)F)o3)cc12 [Example 1923, (R)-(4-(4-ethylpyrazolo [1,5-a]pyridin-2-yl)-1,4,6,7-tetrahydro-5H-imidazo [4,5-c]pyridin-5-yl)(5-(2-fluoropropan-2-yl)-1,3,4-oxadiazol-2-yl)methanone] was tested. Which AC50 did it give?
Its AC50 is over 5000 nM.

With CCc1cccn2nc([C@@H]3c4nc[nH]c4CCN3C(=O)c3nnc(-c4cnn(C)c4)o3)cc12 [Example 1924, (S)-(4-(4-ethylpyrazolo [1,5-a]pyridin-2-yl)-1,4,6,7-tetrahydro-5H-imidazo[4,5-c]pyridin-5-yl)(5-(1-methyl-1H-pyrazol-4-yl)-1,3,4-oxadiazol-2-yl)methanone] as the compound, how does the AC50 read?
Its AC50 is under 500 nM.

How did the AC50 turn out when CCc1cccn2nc([C@@H]3c4nc[nH]c4CCN3C(=O)c3nnc(-c4ccn(C)n4)o3)cc12 [Example 1927, (S)-(4-(4-ethylpyrazolo [1,5-a]pyridin-2-yl)-1,4,6,7-tetrahydro-5H-imidazo[4,5-c]pyridin-5-yl)(5-(1-methyl-1H-pyrazol-3-yl)-1,3,4-oxadiazol-2-yl)methanone] was run?
The AC50 was under 500 nM.

Which AC50 does the source give for CC(C)c1cccn2nc([C@@H]3c4nc[nH]c4CCN3C(=O)c3nnc(-c4cnn(C(F)F)c4)o3)cc12 [Example 1936, (S)-(5-(1-(difluoromethyl)-1H-pyrazol-4-yl)-1,3,4-oxadiazol-2-yl)(4-(4-isopropylpyrazolo[1,5-a]pyridin-2-yl)-1,4,6,7-tetrahydro-5H-imidazo[4,5-c]pyridin-5-yl)methanone] here?
Its AC50 is under 500 nM.

For CC(C)(F)c1nnc(C(=O)N2CCc3[nH]cnc3[C@H]2c2cc3c(Br)cccn3n2)o1 [Example 1938, (S)-(4-(4-bromopyrazolo [1,5-a]pyridin-2-yl)-1,4,6,7-tetrahydro-5H-imidazo [4,5-c]pyridin-5-yl)(5-(2-fluoropropan-2-yl)-1,3,4-oxadiazol-2-yl)methanone], which AC50 is on record?
Its AC50 is under 500 nM.

With CC(C)(F)c1nnc(C(=O)N2CCc3[nH]cnc3[C@@H]2c2cc3c(Br)cccn3n2)o1 [Example 1939, (R)-(4-(4-bromopyrazolo [1,5-a]pyridin-2-yl)-1,4,6,7-tetrahydro-5H-imidazo [4,5-c]pyridin-5-yl)(5-(2-fluoropropan-2-yl)-1,3,4-oxadiazol-2-yl)methanone] as the compound, how does the AC50 read?
Its AC50 is 1000 to 5000 nM.

Which AC50 does the source give for Cc1c(-c2nnc(C(=O)N3CCc4[nH]cnc4[C@H]3c3cc4c(C(C)C)cccn4n3)o2)cnn1C [Example 1948, (S)-(5-(1,5-dimethyl-1H-pyrazol-4-yl)-1,3,4-oxadiazol-2-yl)(4-(4-isopropylpyrazolo [1,5-a]pyridin-2-yl)-1,4,6,7-tetrahydro-5H-imidazo[4,5-c]pyridin-5-yl)methanone] here?
Its AC50 is under 500 nM.

With Cc1c(-c2nnc(C(=O)N3CCc4[nH]cnc4[C@@H]3c3cc4c(C(C)C)cccn4n3)o2)cnn1C [Example 1949, (R)-(5-(1,5-dimethyl-1H-pyrazol-4-yl)-1,3,4-oxadiazol-2-yl)(4-(4-isopropylpyrazolo [1,5-a]pyridin-2-yl)-1,4,6,7-tetrahydro-5H-imidazo[4,5-c]pyridin-5-yl)methanone] as the compound, how does the AC50 read?
Its AC50 is 1000 to 5000 nM.

Which AC50 does the source give for Fc1ccc(-c2nnc(N3CCc4[nH]cnc4[C@@H]3c3cc4c(F)cccn4n3)o2)cc1 [Example 1952, (R)-2-(4-fluorophenyl)-5-(4-(4-fluoropyrazolo[1,5-a]pyridin-2-yl)-1,4,6,7-tetrahydro-5H-imidazo[4,5-c]pyridin-5-yl)-1,3,4-oxadiazole] here?
Its AC50 is over 5000 nM.

With Fc1ccc(-c2nnc(N3CCc4[nH]cnc4[C@H]3c3cc4c(F)cccn4n3)o2)cc1 [Example 1953, (S)-2-(4-fluorophenyl)-5-(4-(4-fluoropyrazolo[1,5-a]pyridin-2-yl)-1,4,6,7-tetrahydro-5H-imidazo[4,5-c]pyridin-5-yl)-1,3,4-oxadiazole] as the compound, how does the AC50 read?
Its AC50 is under 500 nM.

Which AC50 does the source give for Cc1cccn2nc([C@@H]3c4nc[nH]c4CCN3C(=O)c3cnc(C(C)(C)F)o3)cc12 [Example 1959, (S)-(2-(2-fluoropropan-2-yl)oxazol-5-yl)(4-(4-methylpyrazolo[1,5-a]pyridin-2-yl)-1,4,6,7-tetrahydro-5H-imidazo[4,5-c]pyridin-5-yl)methanone] here?
The AC50 was under 500 nM.

How did the AC50 turn out when Cc1cccn2nc([C@H]3c4nc[nH]c4CCN3C(=O)c3cnc(-c4cnn(C)c4C)o3)cc12 [Example 1963, (R)-(2-(1,5-dimethyl-1H-pyrazol-4-yl)oxazol-5-yl)(4-(4-methylpyrazolo[1,5-a]pyridin-2-yl)-1,4,6,7-tetrahydro-5H-imidazo[4,5-c]pyridin-5-yl)methanone] was run?
The AC50 was over 5000 nM.

Which AC50 does the source give for O=C(c1nnc(-c2ccccn2)s1)N1CCc2[nH]cnc2[C@H]1c1cc2c(F)cccn2n1 [Example 1968, (S)-(4-(4-fluoropyrazolo [1,5-a]pyridin-2-yl)-1,4,6,7-tetrahydro-5H-imidazo[4,5-c]pyridin-5-yl)(5-(pyridin-2-yl)-1,3,4-thiadiazol-2-yl) methanone] here?
The AC50 was under 500 nM.

O=C(c1nnc(-c2ccccn2)s1)N1CCc2[nH]cnc2[C@@H]1c1cc2c(F)cccn2n1 [Example 1969, (R)-(4-(4-fluoropyrazolo [1,5-a]pyridin-2-yl)-1,4,6,7-tetrahydro-5H-imidazo[4,5-c]pyridin-5-yl)(5-(pyridin-2-yl)-1,3,4-thiadiazol-2-yl) methanone] was tested. Which AC50 did it give?
Its AC50 is over 5000 nM.

Which AC50 does the source give for Cc1cccn2nc([C@@H]3c4nc[nH]c4CCN3C(=O)c3nnc(-c4ccccn4)s3)cc12 [Example 1970, (S)-(4-(4-methylpyrazolo [1,5-a]pyridin-2-yl)-1,4,6,7-tetrahydro-5H-imidazo[4,5-c]pyridin-5-yl)(5-(pyridin-2-yl)-1,3,4-thiadiazol-2-yl) methanone] here?
The AC50 was under 500 nM.

Which AC50 does the source give for Cc1cccn2nc([C@H]3c4nc[nH]c4CCN3C(=O)c3nnc(-c4ccccn4)s3)cc12 [Example 1971, (R)-(4-(4-methylpyrazolo [1,5-a]pyridin-2-yl)-1,4,6,7-tetrahydro-5H-imidazo[4,5-c]pyridin-5-yl)(5-(pyridin-2-yl)-1,3,4-thiadiazol-2-yl) methanone] here?
The AC50 was over 5000 nM.
